US20160106102A1, “KNOWN AND NEW HETEROCYCLIC COMPOUNDS AS PEST CONTROL AGENTS” (BAYER CROPSCIENCE AKTIENGESELLSCHAFT, priority 2013, published 2016)
Read-outs that look alike come from different tables or passages of the source.

Tests used:
Myzus persicae [1] = experiment: Myzus persicae - spray test; type: in vivo; details: application rate of 500 g/ha, after 6 days, sprayed Chinese cabbage leaf discs infested by all stages, 100% = all aphids killed; for pest or weed control at 500 g/ha: Myzus persicae, foliar, 144 h, read-out: efficacy in %
Protocol: Myzus persicae—spray test Solvent: 78 parts by weight of acetone • • 1.5 parts by weight of dimethylformamide Emulsifier: 0.5 part by weight of alkylaryl polyglycol ether To produce an appropriate active ingredient formulation, 1 part by weight of active ingredient is mixed with the specified amounts of solvent and emulsifier, and the concentrate is diluted to the desired concentration with emulsifier-containing water. Discs of Chinese cabbage leaves (Brassica pekinensis) infested by all stages of the green peach aphid (Myzus persicae) are sprayed with an active ingredient formulation of the desired concentration. After 6 days, the efficacy in % is determined. 100% means that all the aphids have been killed; 0% means that no aphids have been killed.

Myzus persicae [2] = experiment: Myzus persicae - sachet test; type: in vivo; details: 100% = all animals killed; for pest or weed control at 6 ppm / pest or weed control at 30 ppm: Myzus persicae, read-out: efficacy (kill in %)
Method in brief: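 Green peach aphids feed through a sealed sachet on nutrient medium containing the water-diluted formulation (solvents: 2% N-methylpyrrolidone, 2% diacetone alcohol). Percent mortality read after the chosen time; 100% means all animals killed.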

[3] = log P determination by LC-MS in the acidic range; type: physicochemical
Text: The LC-MS determination in the acidic range is effected at pH 2.7 using 0.1% aqueous formic acid and acetonitrile (contains 0.1% formic acid) as eluents, linear gradient from 10% acetonitrile to 95% acetonitrile. Alternatively, the determination is effected in the acidic range at pH 2.3 using 0.1% aqueous phosphoric acid and acetonitrile as eluents; linear gradient from 10% acetonitrile to 95% acetonitrile.

[4] = application rate of 6 ppm in nutrient medium
[5] = application rate of 30 ppm in nutrient medium
[6] = pH 2.7, LC-MS in the acidic range, read-out: log P (acid)
[7] = pH 2.7, values given in the synthesis examples and NMR lists, read-out: HPLC-MS: log P

Row | Structure (SMILES) | efficacy in % (Myzus persicae [1]) [%] | efficacy (kill in %) (Myzus persicae [2]; [4]) [%] | efficacy (kill in %) (Myzus persicae [2]; [5]) [%] | log P (acid) ([3]; LC-MS in the acidic range) | further results
1 | Cc1cc(NC(=O)c2cccnc2)nn1Cc1ncccn1 [Compound I-1-1] | 90 | 100 | 100 | 0.77 | –
2 | CCOCn1nc(NC(=O)c2cccnc2)cc1C [Compound I-1-2] | 100 | 100 | 100 | 1.1 | –
3 | Cc1cc(NC(=O)c2cccnc2)nn1C [Compound I-1-3] | 90 | 100 | 100 | 0.63 | –
4 | Cc1cc(NC(=O)c2cccnc2)nn1CC(F)F [Compound I-1-4] | 100 | 100 | 100 | 1.05 | –
5 | Cc1cc(NC(=O)c2cccnc2)nn1CCF [Compound I-1-5] | 90 | 100 | 100 | 0.84 | –
6 | Cc1cc(NC(=O)c2cccnc2)nn1Cc1ccccn1 [Compound I-1-6] | 90 | 100 | 100 | 0.88 | –
7 | Cc1cc(NC(=O)c2cncc(F)c2)nn1Cc1ncccn1 [Compound I-1-7, 5-Fluoro-N-[5-methyl-1-(pyrimidin-2-ylmethyl)-1H-pyrazol-3-yl]nicotinamide] | – | – | – | – | pest or weed control at 500 g/ha (Myzus persicae [1]): 90%; pest or weed control at 6 ppm (Myzus persicae [2]; [4]): 100%; pest or weed control at 30 ppm (Myzus persicae [2]; [5]): 100%; chromatographic logP [3, 6]: 1.11; chromatographic logP [3, 7]: 1.11
8 | Cc1cc(NC(=O)c2cccnc2)nn1C(F)F [Compound I-1-8] | 90 | 100 | 100 | 1.19 | –
9 | O=C(Nc1ccn(Cc2ncccn2)n1)c1cccnc1 [Compound I-1-9] | 100 | 100 | 100 | 0.42 | –
10 | O=C(Nc1ccn(CC(F)(F)F)n1)c1cccnc1 [Compound I-1-10] | 90 | 100 | 100 | 1.43 | –
11 | Cc1cc(NC(=O)c2cccnc2)nn1CC#N [Compound I-1-11] | 80 | 100 | 100 | 0.7 | –
12 | Cc1cc(NC(=O)c2cccnc2)nn1CC(C)C [Compound I-1-12] | 80 | 100 | 100 | 1.59 | –
13 | O=C(Nc1ccn(CC(F)F)n1)c1cccnc1 [Compound I-1-13] | 90 | 100 | 100 | 0.74 | –
14 | Cc1cc(NC(=O)c2cccnc2)nn1Cc1nccs1 [Compound I-1-14] | 80 | 100 | 100 | 1.05 | –
15 | Cc1cc(NC(=O)c2cccnc2)nn1Cc1cccnc1 [Compound I-1-15] | 90 | 100 | 100 | 0.12 | –
16 | Cc1cc(N(C)C(=O)c2cccnc2)nn1C [Compound I-1-16] | 90 | – | 100 | 0.65 | –
17 | Cc1cc(NC(=O)c2cccnc2)n[nH]1 [Compound I-1-17, N-(5-Methyl-1H-pyrazol-3-yl)nicotinamide] | – | – | – | – | pest or weed control at 500 g/ha (Myzus persicae [1]): 90%; pest or weed control at 6 ppm (Myzus persicae [2]; [4]): 100%; pest or weed control at 30 ppm (Myzus persicae [2]; [5]): 100%; chromatographic logP [3, 6]: 0.3; chromatographic logP [3, 7]: 0.3
18 | Cc1cc(NC(=O)c2cccnc2)nn1C(=O)OC(C)(C)C [Compound I-1-18, tert-Butyl 5-methyl-3-[(pyridin-3-ylcarbonyl)amino]-1H-pyrazole-1-carboxylate] | – | – | – | – | pest or weed control at 500 g/ha (Myzus persicae [1]): 100%; pest or weed control at 6 ppm (Myzus persicae [2]; [4]): 100%; pest or weed control at 30 ppm (Myzus persicae [2]; [5]): 100%; chromatographic logP [3, 6]: 2.04; chromatographic logP [3, 7]: 2.04
19 | C#CCn1nc(NC(=O)c2cccnc2)cc1C [Compound I-1-19] | 100 | 100 | 100 | 0.93 | –

Row | Structure (SMILES) | efficacy in % (Myzus persicae [1]) [%] | efficacy (kill in %) (Myzus persicae [2]; [4]) [%] | efficacy (kill in %) (Myzus persicae [2]; [5]) [%] | log P (acid) ([3]; LC-MS in the acidic range) | further results
20 | Cc1cc(NC(=O)c2cccnc2)nn1Cc1ncccc1C#N [Compound I-1-20] | 90 | 100 | 100 | 1.08 | –
21 | Cc1cc(NC(=O)c2cccnc2)nn1-c1ncccn1 [Compound I-1-23, N-[5-Methyl-1-(pyrimidin-2-yl)-1H-pyrazol-3-yl]nicotinamide] | – | – | – | – | pest or weed control at 500 g/ha (Myzus persicae [1]): 100%; pest or weed control at 6 ppm (Myzus persicae [2]; [4]): 100%; pest or weed control at 30 ppm (Myzus persicae [2]; [5]): 100%; chromatographic logP [3, 6]: 1.16; chromatographic logP [3, 7]: 1.14
22 | Cc1cc(N(C)C(=O)c2cccnc2)nn1-c1ncccn1 [Compound I-1-25, N-Methyl-N-[5-methyl-1-(pyrimidin-2-yl)-1H-pyrazol-3-yl]nicotinamide] | – | – | – | – | pest or weed control at 500 g/ha (Myzus persicae [1]): 100%; pest or weed control at 6 ppm (Myzus persicae [2]; [4]): 100%; pest or weed control at 30 ppm (Myzus persicae [2]; [5]): 100%; chromatographic logP [3, 6]: 1.02; chromatographic logP [3, 7]: 1.02
23 | O=C(Nc1ccn(Cc2ccccn2)n1)c1cccnc1 [Compound I-1-26] | 90 | 100 | 100 | 0.57 | –
24 | O=C(Nc1ccn(Cc2ccc(Cl)nc2)n1)c1cccnc1 [Compound I-1-27] | 90 | 100 | 100 | 1.22 | –
25 | Cc1cc(NC(=O)c2cccnc2)nn1C(=O)c1cccnc1 [Compound I-1-28] | 90 | 100 | 100 | 1.57 | –
26 | O=C(Nc1ccn(-c2ncccc2F)n1)c1cccnc1 [Compound I-1-30] | 90 | 100 | 100 | 1.15 | –
27 | Cc1ccnc(Cn2nc(NC(=O)c3cccnc3)cc2C)n1 [Compound I-1-31] | 90 | 100 | 100 | 0.96 | –
28 | COC(=O)C(C)(C)NC(=O)Cn1nc(NC(=O)c2cccnc2)cc1C [Compound I-1-32] | 90 | 100 | 100 | 0.72 | –
29 | Cc1cc(NC(=O)c2cccnc2)nn1CCCl [Compound I-1-33] | 100 | 100 | 100 | 1.16 | –
30 | Cc1cc(NC(=O)c2cccnc2)nn1-c1ncccc1Cl [Compound I-1-34] | 100 | 100 | 100 | 1.35 | –
31 | COC(=O)C(C)(C)NC(=O)Cn1nc(NC(=O)c2cncc(F)c2)cc1C [Compound I-1-41] | 90 | – | – | 1.33 | –
32 | Cc1cccc(Cn2nc(NC(=O)c3cccnc3)cc2C)c1 [Compound I-1-50] | 90 | – | 100 | – | –
33 | Cc1cc(Cn2nc(NC(=O)c3cccnc3)cc2C)oc(=O)c1 [Compound I-1-154] | 90 | 100 | 100 | – | –
34 | COCCn1nc(N(C)C(=O)c2cccnc2)cc1C [Compound I-1-179] | 100 | – | – | 0.79 | –
35 | O=C(Nc1ncn(Cc2ccccc2Cl)n1)c1cccnc1 [Compound I-2-7, N-[1-(2-Chlorobenzyl)-1H-1,2,4-triazol-3-yl]nicotinamide] | – | – | – | – | pest or weed control at 500 g/ha (Myzus persicae [1]): 100%; chromatographic logP ([3]; HPLC on a reversed-phase column (C 18), pH 2.7, values given in the synthesis examples and NMR lists, read-out: HPLC-MS: log P): 1.22; chromatographic logP ([3]; reversed-phase HPLC column (C18), pH 2.7, Table 2, compounds of the formula (I-2), acidic range pH 2.7 or pH 2.3, read-out: log P (acid)): 1.22
36 | CC(NC(=O)Cn1nnc(NC(=O)c2cccnc2)n1)c1ccccc1 (centres unmarked) [Compound I-4-6, N-(2-{2-Oxo-2-[(1-phenylethyl)amino]ethyl}-2H-tetrazol-5-yl)nicotinamide] | – | – | – | – | pest or weed control at 6 ppm (Myzus persicae [2]; [4]): 100%; pest or weed control at 30 ppm (Myzus persicae [2]; [5]): 100%; chromatographic logP ([3]; reversed-phase HPLC column (C18), pH 2.7, Table 4, HPLC on reversed-phase column (C 18), 55° C., acidic range (pH 2.7 or pH 2.3), read-out: log P (acid)): 1.34; chromatographic logP ([3]; reversed-phase HPLC column (C18), pH 2.7, values given in the synthesis examples and NMR lists, read-out: HPLC-MS: log P): 1.34
37 | C=CCn1nnc(NC(=O)c2cccnc2)n1 [Compound I-4-8] | – | 100 | 100 | – | log P (acid) ([3]; Table 4, HPLC on reversed-phase column (C 18), 55° C., acidic range (pH 2.7 or pH 2.3)): 0.60
